Columns and labels:
late watergrass = assay: Test Example 2: herbicidal activity, application during weed generation under submerged conditions (Table 17, symbol A); format: in vivo, late watergrass (Echinochloa oryzicola); settings: AAH 320 g/ha; application during weed generation, submerged conditions
How it was run: (§1)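 Alluvial soil in Wagner pots was flooded to 4 cm depth and sown with the three weeds together; pots were kept in a greenhouse at 25° C. to 30° C. At the one to two leaf stage, an emulsion formulation diluted in water to a set rate went onto the water surface; scored three weeks later.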

Japanese bulrush = assay: Test Example 2: herbicidal activity, application during weed generation under submerged conditions (Table 17, symbol B); format: in vivo, Japanese bulrush (Schoenoplectus juncoides); settings: AAH 320 g/ha; application during weed generation, submerged conditions
How it was run: as §1

oval-leafed pondweed = assay: Test Example 2: herbicidal activity, application during weed generation under submerged conditions (Table 17, symbol C); format: in vivo, oval-leafed pondweed (Monochoria vaginalis); settings: AAH 320 g/ha; application during weed generation, submerged conditions
How it was run: as §1

barnyard grass [1] = assay: Test Example 3: herbicidal effect by foliage application, Wagner pot (Table 18, symbol H); format: in vivo, barnyard grass (Echinochloa crus-galli); settings: amount of applied herbicide 320 g/ha
How it was run: (§2)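 Plants were sown in alluvial soil held under 0.1–0.5 cm standing water and grown 14 days in a greenhouse at 25–30 °C. An emulsifiable formulation, water-diluted to the set dose, was then sprayed onto the foliage, and effects were scored three weeks later using previously defined criteria.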

Chinese sprangletop = assay: Test Example 3: herbicidal effect by foliage application, Wagner pot (Table 18, symbol D); format: in vivo, chinese sprangletop (Leptochloa chinensis); settings: amount of applied herbicide 320 g/ha
How it was run: as §2

rice flat sedge = assay: Test Example 3: herbicidal effect by foliage application, Wagner pot (Table 18, symbol E); format: in vivo, rice flat sedge (Cyperus iria); settings: amount of applied herbicide 320 g/ha
How it was run: as §2

southern crabgrass = assay: Test Example 5: herbicidal effect by foliage application, plastic box (Table 20, symbol F); format: in vivo, southern crabgrass (Digitaria ciliaris); settings: foliage application, 320 g/ha, evaluated three weeks after application
How it was run: (§3)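 Post-emergence foliar test in sterilized diluvial soil. Compound applied as water-diluted emulsion at a predetermined rate to 14-day-old plants; evaluation at three weeks.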

green foxtail = assay: Test Example 5: herbicidal effect by foliage application, plastic box (Table 20, symbol G); format: in vivo, green foxtail (Setaria viridis); settings: foliage application, 320 g/ha, evaluated three weeks after application
How it was run: as §3

barnyard grass [2] = assay: Test Example 5: herbicidal effect by foliage application, plastic box (Table 20, symbol H); format: in vivo, barnyard grass (Echinochloa crus-galli); settings: foliage application, 320 g/ha, evaluated three weeks after application
How it was run: as §3

wild oat = assay: Test Example 5: herbicidal effect by foliage application, plastic box (Table 20, symbol I); format: in vivo, wild oat (Avena fatua); settings: foliage application, 320 g/ha, evaluated three weeks after application
How it was run: as §3

blackgrass = assay: Test Example 5: herbicidal effect by foliage application, plastic box (Table 20, symbol J); format: in vivo, blackgrass (Alopecurus myosuroides); settings: foliage application, 320 g/ha, evaluated three weeks after application
How it was run: as §3

Italian ryegrass = assay: Test Example 5: herbicidal effect by foliage application, plastic box (Table 20, symbol K); format: in vivo, Italian ryegrass (Lolium multiflorum); settings: foliage application, 320 g/ha, evaluated three weeks after application
How it was run: as §3

windgrass = assay: Test Example 5: herbicidal effect by foliage application, plastic box (Table 20, symbol L); format: in vivo, windgrass (Apera spica-venti); settings: foliage application, 320 g/ha, evaluated three weeks after application
How it was run: as §3

velvetleaf = assay: Test Example 5: herbicidal effect by foliage application, plastic box (Table 20, symbol M); format: in vivo, velvetleaf (Abutilon theophrasti); settings: foliage application, 320 g/ha, evaluated three weeks after application
How it was run: as §3

redroot pigweed = assay: Test Example 5: herbicidal effect by foliage application, plastic box (Table 20, symbol N); format: in vivo, redroot pigweed (Amaranthus retroflexus); settings: foliage application, 320 g/ha, evaluated three weeks after application
How it was run: as §3

lambsquarters = assay: Test Example 5: herbicidal effect by foliage application, plastic box (Table 20, symbol O); format: in vivo, lambsquarters (Chenopodium album); settings: foliage application, 320 g/ha, evaluated three weeks after application
How it was run: as §3

chickweed = assay: Test Example 5: herbicidal effect by foliage application, plastic box (Table 20, symbol P); format: in vivo, common chickweed (Stellaria media); settings: foliage application, 320 g/ha, evaluated three weeks after application
How it was run: as §3

false cleavers = assay: Test Example 5: herbicidal effect by foliage application, plastic box (Table 20, symbol Q); format: in vivo, false cleavers (Galium spurium); settings: foliage application, 320 g/ha, evaluated three weeks after application
How it was run: as §3

persian speedwell = assay: Test Example 5: herbicidal effect by foliage application, plastic box (Table 20, symbol R); format: in vivo, Persian speedwell (Veronica persica); settings: foliage application, 320 g/ha, evaluated three weeks after application
How it was run: as §3

## CCCC(=O)Oc1c(C)nn(C)c(=O)c1-c1c(-c2c(OC)cccc2OC)sc2ccc(Cl)cc12 [2-122]
Late watergrass
  herbicidal effect rating, A: late watergrass: 0 (Herbicidal rate of 5% or less (almost no effect))
Japanese bulrush
  herbicidal effect rating, B: Japanese bulrush: 0 (Herbicidal rate of 5% or less (almost no effect))
oval-leafed pondweed
  herbicidal effect rating, C: oval-leafed pondweed: 2 (Herbicidal rate of 20% or more and less than 40%)
Barnyard grass [1]
  herbicidal effect on H: barnyard grass: 2 (Herbicidal rate of 20% or more and less than 40%)
Chinese sprangletop
  herbicidal effect on D: Chinese sprangletop: 0 (Herbicidal rate of 5% or less (almost no effect))
Rice flat sedge
  herbicidal effect on E: rice flat sedge: 0 (Herbicidal rate of 5% or less (almost no effect))
Southern crabgrass
  herbicidal effect on F: southern crabgrass: 0 (Herbicidal rate of 5% or less (almost no effect))
Green foxtail
  herbicidal effect on G: green foxtail: 0 (Herbicidal rate of 5% or less (almost no effect))
Barnyard grass [2]
  herbicidal effect on H: barnyard grass: 0 (Herbicidal rate of 5% or less (almost no effect))
Wild oat
  herbicidal effect on I: wild oat: 0 (Herbicidal rate of 5% or less (almost no effect))
blackgrass
  herbicidal effect on J: blackgrass: 0 (Herbicidal rate of 5% or less (almost no effect))
Italian ryegrass
  herbicidal effect on K: Italian ryegrass: 0 (Herbicidal rate of 5% or less (almost no effect))
windgrass
  herbicidal effect on L: windgrass: 0 (Herbicidal rate of 5% or less (almost no effect))
velvetleaf
  herbicidal effect on M: velvetleaf: 0 (Herbicidal rate of 5% or less (almost no effect))
Redroot pigweed
  herbicidal effect on N: redroot pigweed: 0 (Herbicidal rate of 5% or less (almost no effect))
lambsquarters
  herbicidal effect on O: lambsquarters: 0 (Herbicidal rate of 5% or less (almost no effect))
chickweed
  herbicidal effect on P: chickweed: 3 (Herbicidal rate of 40% or more and less than 70%)
False cleavers
  herbicidal effect on Q: false cleavers: 0 (Herbicidal rate of 5% or less (almost no effect))
Persian speedwell
  herbicidal effect on R: persian speedwell: 1 (Herbicidal rate of 5% or more and less than 20%)
